Key:
[1] = test system: LX-1 lung tumor; experiment: Antitumor activity against LX-1 lung tumor in nude mice (Example 10, combinations); format: in vivo, human tumor xenograft in nude mice; details: for Avg Tumor Diameter: 4 treatments, mg/kg: EDX 40, PDX 60, TXL 25, TXT 20, PDX+TXL 45+18, PDX+TXT 45+15, 'then' = taxane 24 h later; for Change in Tumor Volume: from starting point of 83 mg, 3 to 4 days after treatment end
[2] = test system: PC-3 (human prostate); experiment: Antitumor activity in PC-3 tumor model in mice (Example 11); details: PC3, dose PDX 60, TXL 25, PDX + TXL 45 + 16
Excerpt: (§1) The tumor volume at the time of initial treatment was 14-19 mm^3.

[3] = test system: LX-1 (human lung); experiment: Antitumor activity in LX-1 tumor model in mice (Example 11)
Excerpt: as §1

[4] = test system: TSU-PR1 (human prostate); experiment: Antitumor activity in TSU-PR1 tumor model in mice (Example 11)
Excerpt: as §1

[5] = test system: human LX-1 lung cancer; experiment: Antitumor activity against xenografts of human LX-1 lung cancer in nude mice (Example 3); format: in vivo, human tumor xenograft in nude mice; details: Example 2 protocol, tumor free three weeks after therapy
[6] = test system: human MX-1 mammary carcinoma; experiment: Antitumor activity against xenografts of human MX-1 mammary carcinoma in nude mice; details: same doses, no measurable tumor at day 14, mice/mice tested
[7] = Phase II clinical trial, tumor responses; format: in vivo, human patients; details: 150 mg/m^2 biweekly
Excerpt: To date, the first six patients have received at least one cycle of treatments. […] Specifically, three patients enrolled in the study had measurable disease.

[8] = dose PDX 60, TXL 25, PDX + TXL 45 + 16
[9] = dose PDX 60, TXL 25, PDX + TXL 45 + 16, initial volume 14-19 mm^3

## CC(=O)O[C@@]12CO[C@@H]1C[C@H](O)[C@@]1(C)C(=O)[C@H](O)C3=C(C)[C@@H](OC(=O)[C@H](O)[C@@H](NC(=O)OC(C)(C)C)c4ccccc4)C[C@@](O)([C@@H](OC(=O)c4ccccc4)[C@H]21)C3(C)C [TXT, docetaxel]
[1]
  Avg Tumor Diameter: 6.0 ± 2 mm
[1]; same doses
  Change in Tumor Volume: +34 mg
[1]; same doses, mice/mice treated
  Tumor Free Mice at 3-4 days: 1/10
  Tumor Free Mice at 28 days: 0/10

## CC(=O)O[C@H]1C(=O)[C@@]2(C)[C@H]([C@H](OC(=O)c3ccccc3)[C@]3(O)C[C@H](OC(=O)[C@H](O)[C@@H](NC(=O)c4ccccc4)c4ccccc4)C(C)=C1C3(C)C)[C@]1(OC(C)=O)CO[C@@H]1C[C@@H]2O [TXL, paclitaxel, reference compound]
[1]
  Avg Tumor Diameter: 6.2 ± 2 mm
[1]; same doses
  Change in Tumor Volume: +42 mg
[1]; same doses, mice/mice treated
  Tumor Free Mice at 3-4 days: 0/10
[2]
  Avg Tumor Diameter: 4.3 ± 0.3 mm
  Tumor Free Mice: 0/6
[2]; initial volume 14-19 mm^3
  Change in Tumor Volume: +26
[3]; [8]
  Avg Tumor Diameter: 11.6 ± 1 mm
  Tumor Free Mice: 0/6
[3]; [9]
  Change in Tumor Volume: +803
[4]; [8]
  Avg Tumor Diameter: 3.2 ± 0.3 mm
  Tumor Free Mice: 0/6
[4]; [9]
  Change in Tumor Volume: 0

## CCC(Cc1cnc2nc(N)nc(N)c2n1)c1ccc(C(=O)N[C@@H](CCC(=O)O)C(=O)O)cc1 (stereo partly drawn) [EDX, edatrexate]
[1]
  Avg Tumor Diameter: 6.6 ± 2 mm
[1]; same doses
  Change in Tumor Volume: +102 mg
[1]; same doses, mice/mice treated
  Tumor Free Mice at 3-4 days: 0/10

## CN(Cc1cnc2nc(N)nc(N)c2n1)c1ccc(C(=O)N[C@@H](CCC(=O)O)C(=O)O)cc1 [MTX, methotrexate, reference compound]
[5]
  Cures: 0/10
[6]
  Complete Regressions: no regressions

## C#CCC(Cc1cnc2nc(N)nc(N)c2n1)c1ccc(C(=O)N[C@@H](CCC(=O)O)C(=O)O)cc1 (stereo partly drawn) [10-propargyl-10-deazaaminopterin]
[7]
  response of fourth patient (evaluable disease): objective improvement in disease parameters
[7]; of first six patients
  patients with major responses: four have demonstrated major responses
[7]; three patients with measurable disease
  reduction in tumor diameter (lung scans): at least 50%

Reference: US6323205A (priority 2000, dated 2001)
